# Experimental data reported in ChEMBL document CHEMBL4651402, “Screening of ~5500 FDA-approved drugs and clinical candidates for anti-SARS-CoV-2 activity” (2021).
# Where “and” joins values, the source holds several entries; their conditions need not be identical. Identical values can stand only once.
# Key:
# [1] = test system: SARS-CoV-2; conditions: vero c1008
# [2] = test system: SARS-CoV-2; assay: microbe, parasite or virus in culture; format: functional, organism-based, Chlorocebus sabaeus, Vero C1008
# [3] = in vitro; conditions: chlorocebus sabaeus, Vero E6 (Vero C1008) cells
# [4] = test system: Vero C1008; conditions: chlorocebus sabaeus, vero c1008, 48 h
# [5] = test system: SARS-CoV-2; assay: microbe, parasite or virus in culture; conditions: Severe acute respiratory syndrome coronavirus 2, Vero C1008, 48 h
# [6] = Severe acute respiratory syndrome coronavirus 2, Vero C1008, 48 h, read-out: IC50
# [7] = Severe acute respiratory syndrome coronavirus 2, Vero C1008, 48 h, read-out: pIC50 (converted)
Compound,IC50 [1],pIC50 [1],"IC50 [2, 6] [µM]","IC50 [2, 7] [µM]",CC50 at 48 h ([3]; CC50) [µM],CC50 at 48 h ([3]; pCC50) [µM],further results
O=[N+]([O-])c1ccc(Cl)c([N+](=O)[O-])c1 [DINITROCHLOROBENZENE],> 20 µM,< 4.7,,,,,
CC(Cc1ccccc1)NCCC(c1ccccc1)c1ccccc1 (stereo unspecified) [PRENYLAMINE],8.51 µM and > 20 µM,5.07 and < 4.7,> 100,> 100,10.7,10.7,
CNC[C@H]1C[C@@H]2c3ccccc3Cc3ccc(F)cc3[C@H]2O1,,,> 100,> 100,19.5,19.5,"pIC50 ([2]; vero c1008): < 4.3; IC50 ([2]; vero c1008, read-out: IC50): > 50.1 µM; CC50 ([4]; 48 h): ~22.4 µM; pCC50 ([4]; 48 h): ~ 4.65; IC50 [5]: > 100 µM; IC50 ([5]; read-out: pIC50 (converted)): > 100 µM"
FLUPENTIXOL,8.71 µM and > 20 µM,5.06 and < 4.7,,,,,"pIC50 ([2]; vero c1008): < 4; IC50 ([2]; vero c1008, read-out: IC50): > 100 µM; CC50 [4]: 7.67 µM; pCC50 [4]: 5.12"
CC1(C)[C@H](C(=O)[O-])N2C(=O)C[C@H]2S1(=O)=O.[Na+] [SULBACTAM SODIUM],,< 4.7,,,,,
CCCCCCCCNC(C)C(O)c1ccc(SC(C)C)cc1 (stereo unspecified) [SULOCTIDIL],> 100 µM,,> 100,> 100,3.27,3.24,
ATSM COPPER (II),> 20 µM,< 4.7,,,,,
CN(C)c1ccc(O)c2c1C[C@H]1C[C@H]3[C@H](N(C)C)C(O)=C(C(N)=O)C(=O)[C@@]3(O)C(O)=C1C2=O.Cl [MINOCYCLINE HYDROCHLORIDE],,< 4.7,,,,,
COC(=O)C1=C(C)NC(C)=C(C(=O)OC2CCCN(Cc3ccccc3)C2)C1c1cccc([N+](=O)[O-])c1 (stereo unspecified) [BENIDIPINE],> 100 µM,,> 100,> 100,14.8,14.8,
O=S(=O)(O)c1cc(O)ccc1O [DOBESILIC ACID],,< 4.7,,,,,
OC(CNCC(O)C1CCc2cc(F)ccc2O1)C1CCc2cc(F)ccc2O1 (stereo unspecified) [NEBIVOLOL],> 20 µM,< 4.7,> 100,> 100,8.71,8.71,IC50 [5]: > 10 µM; IC50 ([5]; read-out: pIC50 (converted)): > 10 µM
O=c1cnn([C@@H]2O[C@H](CO)[C@@H](O)[C@H]2O)c(=O)[nH]1 [6-AZAURIDINE],> 100 µM,,,,,,
CNCC(O)C(O)C(O)C(O)CO.Cc1c(Nc2ncccc2C(=O)O)cccc1C(F)(F)F,,< 4.7,,,,,
NYSTATIN,> 20 µM,< 4.7,,,,,
